In patent publication US20040009569A1, “Kinase crystal structures and materials and methods for kinase activation” (priority 2001, published 2004):
Peptide text beside a SMILES is read from it.

Columns and labels:
ΔPH-PKB-ΔC = molecular target: T1, ΔPH-PKB-ΔC (Homo sapiens, UniProt P31751); assay: Isothermal titration calorimetry, peptide binding to ΔPH-PKB-ΔC
T1 construct: ΔPH-PKB-ΔC(residues 146 to 460, not phosphorylated on Thr-309); 6xHis (N, cleaved yes); made in house; host or cells: Sf9 insect cells / baculovirus (pFastBacHTa)
T1 sequence (P31751 146-460, stated change not applied): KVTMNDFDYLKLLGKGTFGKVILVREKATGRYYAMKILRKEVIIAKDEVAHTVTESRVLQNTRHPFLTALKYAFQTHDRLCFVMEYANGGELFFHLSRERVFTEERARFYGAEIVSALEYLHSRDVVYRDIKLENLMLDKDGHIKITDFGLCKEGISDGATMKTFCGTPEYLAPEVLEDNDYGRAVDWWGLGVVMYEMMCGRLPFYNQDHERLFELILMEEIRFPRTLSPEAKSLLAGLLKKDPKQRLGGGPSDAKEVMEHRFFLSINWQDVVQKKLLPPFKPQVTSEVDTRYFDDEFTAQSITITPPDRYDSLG
Method: (§1) (C) Isothermal titration calorimetry measurements of the binding of PIFtide to pΔPH-PKB-ΔC (left) and ΔPH-PKB-ΔC (right). Upper panel, raw data of the titration of PIFtide into pΔPH-PKB-ΔC. Lower panel, integrated heats of injections, corrected for the heat of dilution, with the solid line corresponding to the best fit of the data using the MicroCal software.
(§2) Using isothermal titration calorimetry, the affinity between PIFtide and both pΔPH-PKB-ΔC and ΔPH-PKB-ΔC was determined (FIG. 5C). […] The observed large decrease in entropy is […] typical of protein-peptide interactions, for example SH2-domain-phosphotyrosine peptide complexes (Ladbury et al., 1996), and is consistent with an ordering of both the protein, presumably the αB- and αC-helices of the N-lobe, and peptide on complex formation.

[1] = molecular target: T2, His tagged pΔPH-PKB-ΔC L225A mutant (Homo sapiens, UniProt P31751, L225A); assay: PIFtide responsiveness of hydrophobic groove mutant Leu 225; type: biochemical; conditions: 130 μM PIFtide
T2 construct: pΔPH-PKB-ΔC (residues 146 to 460, phosphorylated in vitro on Thr-309); made in house; host or cells: HEK cells (transient expression), purified on Ni-NTA agarose
T2 sequence (P31751 146-460 L225A): as the sequence (P31751 146-460, stated change not applied) above, with L80A counted along it
Method: (§3) Mutations of conserved hydrophobic motif residues of PIFtide and PKB HM-peptide reduce or eliminate their potential to activate ΔPH-PKB-ΔC phosphorylated on Thr 309. Mutations of hydrophobic and electrostatic residues of the ΔPH-PKB-ΔC N-lobe hydrophobic groove reduces the stimulation of PKB activity by 130 μM PIFtide.
(§4) To test the notion that a hydrophobic groove is induced in PKB to engage the hydrophobic motif, and activate the kinase, a series of His tagged pΔPH-PKB-ΔC hydrophobic groove mutants were prepared and their responsiveness to PIFtide assessed. PKB mutants were transiently expressed in HEK cells, phosphorylated in vitro with PDK1, and purified using Ni-NTA agarose. […] Wild type PKB prepared using this procedure was stimulated ˜5-fold by 130 μM PIFtide (FIG. 6B).
(§5) PKB was assayed essentially as described by Andjelkovic et al. (1999) with 30 μM Crosstide (GRPRTSSAEG) as substrate except the protein kinase A inhibitor peptide was not added to the reactions. For peptide stimulation experiments the various peptides were dissolved in water and added to the kinase assay mix prior to adding the PKB protein. Peptides were synthesized by Franz Fischer at the FMI or purchased from Neosystem, Strasburg, France.

pΔPH-PKB-ΔC = molecular target: T3, pΔPH-PKB-ΔC (Homo sapiens, UniProt P31751); assay: Isothermal titration calorimetry, peptide binding to pΔPH-PKB-ΔC; conditions: ITC; read-out: equilibrium dissociation constant
T3 construct: pΔPH-PKB-ΔC (residues 146 to 460, phosphorylated in vitro on Thr-309); 6xHis (N, cleaved yes); made in house; host or cells: Sf9 insect cells / baculovirus (pFastBacHTa)
T3 sequence (P31751 146-460, stated change not applied): as the sequence (P31751 146-460, stated change not applied) above
Method: as §1, §2

PDK1 [2] = molecular target: T4, PDK1 (Homo sapiens, UniProt O15530); conditions: cited from earlier work
T4 sequence (O15530 1-556): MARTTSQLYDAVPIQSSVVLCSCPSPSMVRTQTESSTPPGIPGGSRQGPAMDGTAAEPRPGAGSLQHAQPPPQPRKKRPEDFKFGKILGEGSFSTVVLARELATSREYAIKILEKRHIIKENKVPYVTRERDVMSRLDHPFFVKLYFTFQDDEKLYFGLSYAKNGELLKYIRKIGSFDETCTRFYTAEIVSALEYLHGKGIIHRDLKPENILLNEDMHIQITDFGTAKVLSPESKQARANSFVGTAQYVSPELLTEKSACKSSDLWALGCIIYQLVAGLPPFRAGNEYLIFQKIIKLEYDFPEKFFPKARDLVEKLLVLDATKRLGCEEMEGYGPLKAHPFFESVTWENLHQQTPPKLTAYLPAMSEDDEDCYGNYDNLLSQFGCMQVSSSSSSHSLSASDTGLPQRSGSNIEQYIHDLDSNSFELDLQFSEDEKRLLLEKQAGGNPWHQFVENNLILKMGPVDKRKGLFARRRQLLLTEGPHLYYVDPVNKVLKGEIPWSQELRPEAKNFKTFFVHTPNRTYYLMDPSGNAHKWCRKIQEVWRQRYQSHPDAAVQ

[3] = molecular target: T5, His tagged pΔPH-PKB-ΔC R202D mutant (Homo sapiens, UniProt P31751, R202D); assay: PIFtide responsiveness of charge reversal mutant R202D; type: biochemical
T5 construct: pΔPH-PKB-ΔC (residues 146 to 460, phosphorylated in vitro on Thr-309); made in house; host or cells: HEK cells (transient expression), purified on Ni-NTA agarose
T5 sequence (P31751 146-460 R202D): as the sequence (P31751 146-460, stated change not applied) above, with R57D counted along it
Method: as §3, §4
Electrostatic interactions are important in defining high affinity PIFtide and PKB HM peptide associations with PKB (FIG. 5B), and form the basis for the increased affinity of the HM for the N-lobe and subsequent activation of PKB by Ser 474 phosphorylation. […] The equivalent residue of PKA, Arg 93, which is also conserved in PKC and PRK2, forms a water-mediated salt bridge to the carboxylate group of Glu 349 (FIG. 2).
PKB was assayed essentially as described by Andjelkovic et al. (1999) with 30 μM Crosstide (GRPRTSSAEG) as substrate except the protein kinase A inhibitor peptide was not added to the reactions. […]

PDK1 [4] = molecular target: T4, PDK1; conditions: cited from earlier work; remark: listed apart in the source
[5] = molecular target: T6, pΔPH-PKB-ΔC (PKBβ residues 146 to 460, phosphorylated in vitro on Thr-309) (Homo sapiens, UniProt P31751); assay: Protein kinase B assay with Crosstide as substrate, peptide stimulation of pΔPH-PKB-ΔC; type: biochemical; conditions: Crosstide substrate
T6 construct: pΔPH-PKB-ΔC (residues 146 to 460, phosphorylated in vitro on Thr-309); 6xHis (N, cleaved yes); made in house; host or cells: Sf9 insect cells / baculovirus (pFastBacHTa)
T6 sequence (P31751 146-460, stated change not applied): as the sequence (P31751 146-460, stated change not applied) above
Method: To test the model that Ser 474 phosphorylation promotes an interaction between the hydrophobic motif and the induced hydrophobic groove of the N-terminal lobe, thereby causing an allosteric activation of the kinase, the ability of peptides modelled on the hydrophobic motif of PKB to activate the enzyme via an intermolecular association with the N-terminal lobe was assessed.
as §5
All experiments were performed in either duplicate or triplicate.

Structure (SMILES): CC[C@H](C)[C@H](NC(=O)[C@H](Cc1ccc(O)cc1)NC(=O)[C@H](CC(=O)O)NC(=O)[C@H](Cc1ccccc1)NC(=O)[C@H](CC(=O)O)NC(=O)[C@H](CCCNC(=N)N)NC(=O)[C@H](Cc1ccccc1)NC(=O)[C@H](CCSC)NC(=O)[C@H](CCC(=O)O)NC(=O)[C@H](CCC(N)=O)NC(=O)[C@H](CCC(=O)O)NC(=O)[C@H](CCC(=O)O)NC(=O)[C@H](CCC(=O)O)NC(=O)[C@H](CO)NC(=O)[C@H](CC(C)C)NC(=O)[C@@H](NC(=O)[C@H](CCCNC(=N)N)NC(=O)[C@@H]1CCCN1C(=O)[C@H](CCC(=O)O)NC(=O)[C@@H](N)CCCNC(=N)N)[C@@H](C)CC)C(=O)N[C@@H](C)C(=O)N[C@@H](CC(=O)O)C(=O)N[C@@H](Cc1c[nH]c2ccccc12)C(=O)O [PIFtide] (H-REPRILSEEEQEMFRDFDYIADW-OH; N-terminus and C-terminus assumed)
- binding to ΔPH-PKB-ΔC (in words) (ΔPH-PKB-ΔC): can bind
- enthalpy change ΔH (ΔPH-PKB-ΔC; ITC): -16.0 kcal/mol
- entropy term TΔS (ΔPH-PKB-ΔC; ITC): -9.2 kcal/mol
- Kd (ΔPH-PKB-ΔC; ITC, read-out: dissociation constant): 5.5 µM
- responsiveness to PIFtide (in words) [1]: almost a complete loss of responsiveness
- Kd (pΔPH-PKB-ΔC): 6 µM
- effect on thermal stability of PDK1 (in words) (PDK1 [2]): greatly increases
- ability of PIFtide to activate R202D PKB (in words) ([3]; 130 μM PIFtide): almost eliminates
- responsiveness of R202D PKB (in words) ([3]; higher concentrations of the peptide): more responsive
- stimulation of PDK1 activity (PDK1 [4]): four-fold
- concentration of maximum and saturable activation [5]: 20 µM
- specific activity of pΔPH-PKB-ΔC maximally activated by PIFtide [5]: 350 nmol/min/mg
- EC50 ([5]; value of PIFtide(D->A) called estimated, read-out: EC50 for activation of pΔPH-PKB-ΔC): 3 µM
